Laboratory results from patent US7060725B2, “Substituted sulfamate anticonvulsant derivatives” (Janssen Pharmaceutica N.V., priority 2002, dated 2006).

Experiments:
[1] = system: maximal electroshock seizure (MES-induced seizure spread); assay: Maximal electroshock seizure (MES) test, mouse; type: in vivo, mice
Protocol: Anticonvulsant activity was determined using the standard MES model for generalized tonic-clonic seizures (Swinyard E A, Woodhead J H, White H S, Franklin M R, In: Levy R H, Mattson R H, Meldrum B S, Penry J K, Dreifuss F E eds. Antiepileptic drugs. New York: Raven Press, 1989:85–102).
An electric stimulus of 0.2 sec duration, 60 Hz, 50 mA in mice, 150 mA in rats, was delivered via corneal electrodes primed with an electrolyte solution containing an anesthetic agent (0.5% tetracaine hydrochloride in 0.9% saline).
Mice or rats were randomly selected into control and test groups. The animals were dosed with vehicle or test compound, at varying concentrations. […] Rats were subjected to electrical stimulus at time intervals between 15 minutes and 4 hours following administration of test compound. Abolition of the hind limb tonic extensor component was an indication of the test compound's ability to inhibit MES-induced seizure spread.
The ED50 (the calculated dose required to block the hindlimb tonic-extensor component of the maximal electroshock seizure in 50% of the animals tested) was calculated. A probit analysis (Finney D J. Probit Analysis. Cambridge, England: Cambridge University Press, 1971) was used to calculate the ED50.
Following the mouse procedure described above, representative compounds of the instant invention were tested for biological activity in the mouse, with results as listed in Table 5. Mouse activity is listed as number of mice active/total number of mice tested @ time after administration of the test compound.

[2] = system: maximal electroshock seizure (MES-induced seizure spread); assay: Maximal electroshock seizure (MES) test, rat; type: in vivo, rats
Protocol: Anticonvulsant activity was determined using the standard MES model for generalized tonic-clonic seizures (Swinyard E A, Woodhead J H, White H S, Franklin M R, In: […], Meldrum […], Dreifuss F E eds. Antiepileptic drugs. New York: Raven Press, 1989:85-102). An electric stimulus of 0.2 sec duration, 60 Hz, 50 mA in mice, 150 mA in rats, was delivered via corneal electrodes primed with an electrolyte solution containing an anesthetic agent (0.5% tetracaine hydrochloride in 0.9% saline). Mice or rats were randomly selected into control and test groups. The animals were dosed with vehicle or test compound, at varying concentrations. Mice were subjected to the electrical stimulus at 30 minutes and 4 hours following administration of test compound. […] Abolition of the hind limb tonic extensor component was an indication of the test compound's ability to inhibit MES-induced seizure spread. […] A probit analysis (Finney D J. Probit Analysis. Cambridge, England: Cambridge University Press, 1971) was used to calculate the ED50. Following the rat procedure described above, representative compounds of the instant invention were tested for biological activity in the rat, with results as listed in Table 6 and 7. Rat activity is listed as number of rats active/total number of rats tested @ time after administration of the test compound.

[3] = 100 mg/kg, @ 4 hrs after administration
[4] = 300 mg/kg, @ 0.5 hrs after administration
[5] = 300 mg/kg, @ 4 hrs after administration
[6] = 100 mg/kg, @ 0.5 hrs after administration

CON(C)S(=O)(=O)OCC12OCC3OC(C)(C)OC3C1OC(C)(C)O2 (centres unmarked) [Compound 11]
Mouse Activity ([1]; dosage 30, 100, 300 mg/kg): No activity | ED50 ([2]; @ 4 hrs): 26.75 @ 4 hrs m/k | Rat Activity (oral) (number of rats active/total number of rats tested) ([2]; 30 mg/kg, @ 0.5 hrs): 2/3 @ 0.5 hrs | Rat Activity (oral) (number of rats active/total number of rats tested) ([2]; 30 mg/kg, @ 2 hrs): 2/3 @ 2 hrs | Rat Activity (oral) (number of rats active/total number of rats tested) ([2]; 30 mg/kg, @ 4 hrs): 2/3 @ 4 hrs

CN(O)S(=O)(=O)OCC12OCC3OC(C)(C)OC3C1OC(C)(C)O2 (centres unmarked) [Compound 12]
Mouse Activity ([1]; dosage 30, 100, 300 mg/kg): No activity | Rat Activity (oral) (number of rats active/total number of rats tested) ([2]; 15 mg/kg, @ 1 hr): 1/4 @ 1 hr

CC1(C)OC2COC3(COS(=O)(=O)NC(=O)O[Si](c4ccccc4)(c4ccccc4)c4ccccc4)OC(C)(C)OC3C2O1 (centres unmarked) [Compound 13]
Mouse Activity ([1]; dosage 30, 100, 300 mg/kg): No activity | Rat Activity (oral) (number of rats active/total number of rats tested) ([2]; 30 mg/kg, @ 0.5 hrs): 1/4 @ 0.5 hrs | Rat Activity (oral) (number of rats active/total number of rats tested) ([2]; 30 mg/kg, @ 1 hr): 1/4 @ 1 hr

CC(C)(C)OC(=O)NS(=O)(=O)OC[C@@]12OC[C@H]3OC(C)(C)OC3[C@@H]1OC(C)(C)O2 (stereo partly drawn) [Compound 14, N-t-butoxycarbonyl-2,3:4,5-bis-O-(1-methylethylidene)-β-D-fructopyranose sulfamate]
Mouse Activity ([1]; dosage 30, 100, 300 mg/kg): No activity | Rat Activity (oral) (number of rats active/total number of rats tested) ([2]; 30 mg/kg, @ 2 hrs): 3/4 @ 2 hrs | Rat Activity (oral) (number of rats active/total number of rats tested) ([2]; 30 mg/kg, @ 4 hrs): 4/4 @ 4 hrs

CC1(C)OC2[C@@H](CO[C@@]3(COS(=O)(=O)NC(=O)OCc4ccccc4)OC(C)(C)O[C@@H]23)O1 (stereo partly drawn) [Compound 15, N-benzyloxycarbonyl-2,3:4,5-bis-O-(1-methylethylidene)-β-D-fructopyranose sulfamate]
Mouse Activity (number of mice active/total number of mice tested) ([1]; 100 mg/kg, @ 1 hr after administration): 3/3 @ 1 hr | Mouse Activity (number of mice active/total number of mice tested) [1, 3]: 2/3 @ 4 hrs | Mouse Activity (number of mice active/total number of mice tested) [1, 4]: 1/1 @ 0.5 hrs | Mouse Activity (number of mice active/total number of mice tested) [1, 5]: 1/1 @ 4 hrs | Mouse Activity ([1]; dosage 30 mg/kg): No activity

CC1(C)O[C@@H]2[C@@H](CO[C@@]3(COS(=O)(=O)[N-]C(=O)OCc4ccccc4)OC(C)(C)O[C@@H]23)O1.[Na+] [Compound 17, N-(benzyloxy-carbonyl)-2,3:4,5-bis-O-(1-methylethylidene)-β-D-fructopyranose sulfamate sodium salt]
ED50 ([2]; @ 4 hrs): 10.37 @ 4 hrs, m/k | ED50 ([2]; @ 6 hrs): 3.26 @ 6 hrs m/k | Rat Activity (oral) (number of rats active/total number of rats tested) ([2]; 30 mg/kg, @ 0.25 hrs): 1/4 @ 0.25 hrs | Rat Activity (oral) (number of rats active/total number of rats tested) ([2]; 30 mg/kg, @ 0.5 hrs): 2/4 @ 0.5 hrs | Rat Activity (oral) (number of rats active/total number of rats tested) ([2]; 30 mg/kg, @ 1 hr): 1/4 @ 1 hr | Rat Activity (oral) (number of rats active/total number of rats tested) ([2]; 30 mg/kg, @ 2 hrs): 4/4 @ 2 hrs | Rat Activity (oral) (number of rats active/total number of rats tested) ([2]; 30 mg/kg, @ 4 hrs): 4/4 @ 4 hrs

CC(=O)[N-]S(=O)(=O)OC[C@@]12OC[C@H]3OC(C)(C)OC3[C@@H]1OC(C)(C)O2.[Na+] (stereo partly drawn) [Compound 18, N-acetyl-2,3:4,5-bis-O-(1-methylethylidene)-β-D-fructopyranose sulfamate sodium salt]
Mouse Activity (number of mice active/total number of mice tested) [1, 6]: 1/3 @ 0.5 hrs | Mouse Activity (number of mice active/total number of mice tested) [1, 3]: 2/3 @ 4 hrs | Mouse Activity (number of mice active/total number of mice tested) [1, 4]: 1/1 @ 0.5 hrs | Mouse Activity (number of mice active/total number of mice tested) [1, 5]: 1/1 @ 4 hrs | Mouse Activity ([1]; dosage 30 mg/kg): No activity | Rat Activity (oral) (number of rats active/total number of rats tested) ([2]; 30 mg/kg, @ 0.25 hrs): 1/4 @ 0.25 hrs | Rat Activity (oral) (number of rats active/total number of rats tested) ([2]; 30 mg/kg, @ 0.5 hrs): 1/4 @ 0.5 hrs | Rat Activity (oral) (number of rats active/total number of rats tested) ([2]; 30 mg/kg, @ 2 hrs): 1/4 @ 2 hrs | Rat Activity (oral) (number of rats active/total number of rats tested) ([2]; 30 mg/kg, @ 4 hrs): 3/4 @ 4 hrs

CCC(=O)[N-]S(=O)(=O)OCC12OCC3OC(C)(C)OC3C1OC(C)(C)O2.[Na+] (centres unmarked) [Compound 19]
Mouse Activity (number of mice active/total number of mice tested) [1, 6]: 0/3 @ 0.5 hrs | Mouse Activity (number of mice active/total number of mice tested) [1, 3]: 3/3 @ 4 hrs | Mouse Activity (number of mice active/total number of mice tested) [1, 4]: 1/1 @ 0.5 hrs | Mouse Activity (number of mice active/total number of mice tested) [1, 5]: 1/1 @ 4 hrs | Mouse Activity ([1]; dosage 30 mg/kg): No activity | ED50 ([2]; @ 4 hrs): 11.22 @ 4 hrs m/k | Rat Activity (oral) (number of rats active/total number of rats tested) ([2]; 30 mg/kg, @ 0.25 hrs): 1/4 @ 0.25 hrs | Rat Activity (oral) (number of rats active/total number of rats tested) ([2]; 30 mg/kg, @ 0.5 hrs): 0/4 @ 0.5 hrs | Rat Activity (oral) (number of rats active/total number of rats tested) ([2]; 30 mg/kg, @ 1 hr): 1/4 @ 1 hr | Rat Activity (oral) (number of rats active/total number of rats tested) ([2]; 30 mg/kg, @ 2 hrs): 4/4 @ 2 hrs | Rat Activity (oral) (number of rats active/total number of rats tested) ([2]; 30 mg/kg, @ 4 hrs): 4/4 @ 4 hrs

CC1(C)OC2COC3(COS(=O)(=O)NCCC(=O)O)OC(C)(C)OC3C2O1 (centres unmarked) [Compound 35]
Mouse Activity (number of mice active/total number of mice tested) [1, 4]: 1/1 @ 0.5 hrs | Mouse Activity ([1]; dosage 30, 100 mg/kg): No Activity
